Key:
Pcy/DBA mice = experiment: Efficacy in Pcy/DBA mouse model of PKD, alone and with tolvaptan; assay type: in vivo; details: 0.3% Tolvaptan in chow alone (vehicle SC);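 further: dosing began at 6 weeks of age, with endpoints collected 7 days after the last dose and PBS-injected wild-type DBA/2J mice as the normal reference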
Procedure: The efficacy of RG-NG-1015 was also evaluated in the Pcy/DBA mouse model of PKD alone and in combination with tolvaptan.
As outlined in FIGS. 6A and 6B, five groups of male Pcy/DBA mice (n=13 per treatment group) were treated subcutaneously with PBS or RG-NG-1015 at 25, 5, 1, or 0.2 mg/kg once every two weeks (Q2W). Two groups of male Pcy/DBA mice (n=13 per group) were also treated with RG-NG-1015 at 50 mg/kg once every four weeks (Q4W) or at 12.5 mg/kg once weekly (QW). Another four groups of male Pcy/DBA mice (n=13 per group) were treated subcutaneously with PBS or RG-NG-1015 at 25, 5, or 1 mg/kg Q2W in combination with tolvaptan at 0.3% (w/w chow) ad libitum. A group of male WT-BDA/2J mice received subcutaneous injections of PBS Q2W was included in the study as a normal range reference. Mice were randomized into treatment groups at 5 weeks of age, and treatment started at 6 weeks of age for 17 weeks and were sacrificed 7 days after the final treatment. Kidney weight, body weight, kidney cyst index, urine Ngal-to-Creatinine ratio (Ngal/Cr) were measured.

miR-17 [1] = experiment: miR-17 luciferase sensor assay in HeLa cells; assay type: cell-based; details: 37.5 nM
Procedure: The in vitro potency of certain compounds was evaluated using a miR-17 luciferase sensor assay which uses a luciferase reporter vector for miR-17, with two fully complementary miR-17 binding sites in tandem in the 3′-UTR of the luciferase gene. HeLa cells were co-transfected with the luciferase reporter vector and an exogenous miR-17-expression vector that acted to repress the luciferase signal.

AMPA-R = experiment: [3H]AMPA radioligand binding assay on rat brain synaptic membranes;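 further: competition binding in which test compounds at rising concentrations displace [3H]AMPA from AMPA-R on rat brain synaptic membranes, with reduced bound radioligand as read-out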
miR-17 [2] = experiment: microRNA polysome shift assay (miPSA) in kidney of wild type mice; assay type: in vivo, mouse; details: single dose 30 mg/kg, seven days later
Procedure: In vivo potency was evaluated using the microRNA polysome shift assay (miPSA). This assay was used to determine the extent to which compounds directly engage the miR-17 target in the kidney in normal and PKD mice. The miPSA relies on the principle that active miRNAs bind to their mRNA targets in translationally active high molecular weight (HMW) polysomes, whereas the inhibited miRNAs reside in the low MW (LMW) polysomes. Treatment with anti-miR results in a shift of the microRNA from HMW polysomes to LMW polysomes. Thus, the miPSA provides a direct measurement of microRNA target engagement by a complementary anti-miR (Androsavich et al., Nucleic Acids Research, 2015, 44: e13).
Wild type mice were administered a single dose of 0.3 mg/kg, 3 mg/kg, or 30 mg/kg. Kidney tissue was collected seven days later and subjected to the miPSA. The mean displacement score for each treatment is shown in Table 15 (PBS, n=17; RGLS4326 30 mg/kg, n=10; all other treatments, n=4-5). The tested oligonucleotides displaced miR-17 from translationally active polysome (as measured by miPSA) in normal mouse kidneys.

AMPA-R (GluA1/GluA4) = target: T1, AMPA-R (GluA1/GluA4) (Homo sapiens, UniProt P42261+P48058); experiment: Manual whole-cell patch clamp, ChanTest GluA1/GluA4 EZCells; assay type: cell-based
T1 construct: host or cells: ChanTest GluA1/GluA4 EZCells
T1 sequence (P42261 19-906): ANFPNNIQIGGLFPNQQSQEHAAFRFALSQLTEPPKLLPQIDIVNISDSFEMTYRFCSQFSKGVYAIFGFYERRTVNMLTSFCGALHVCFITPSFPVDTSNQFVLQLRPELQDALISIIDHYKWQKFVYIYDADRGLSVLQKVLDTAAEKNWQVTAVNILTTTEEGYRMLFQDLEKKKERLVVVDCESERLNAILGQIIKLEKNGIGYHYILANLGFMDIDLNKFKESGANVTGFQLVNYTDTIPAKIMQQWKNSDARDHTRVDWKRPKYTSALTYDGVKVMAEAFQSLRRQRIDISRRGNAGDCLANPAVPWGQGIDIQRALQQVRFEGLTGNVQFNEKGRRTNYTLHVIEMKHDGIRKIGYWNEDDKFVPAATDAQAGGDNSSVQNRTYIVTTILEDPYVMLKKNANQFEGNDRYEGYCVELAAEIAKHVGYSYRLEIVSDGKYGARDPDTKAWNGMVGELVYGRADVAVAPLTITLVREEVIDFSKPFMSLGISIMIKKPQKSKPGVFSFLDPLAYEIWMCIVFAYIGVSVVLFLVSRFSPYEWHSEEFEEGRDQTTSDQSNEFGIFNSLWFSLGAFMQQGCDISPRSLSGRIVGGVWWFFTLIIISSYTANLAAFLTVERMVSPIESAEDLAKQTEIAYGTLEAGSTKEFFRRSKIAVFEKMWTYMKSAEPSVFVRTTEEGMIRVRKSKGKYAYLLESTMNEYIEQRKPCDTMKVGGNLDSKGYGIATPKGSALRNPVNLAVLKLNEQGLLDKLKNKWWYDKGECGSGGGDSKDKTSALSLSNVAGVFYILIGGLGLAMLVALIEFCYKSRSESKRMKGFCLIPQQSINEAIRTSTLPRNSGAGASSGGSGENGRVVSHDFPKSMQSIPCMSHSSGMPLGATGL
T1 sequence (P48058 21-902): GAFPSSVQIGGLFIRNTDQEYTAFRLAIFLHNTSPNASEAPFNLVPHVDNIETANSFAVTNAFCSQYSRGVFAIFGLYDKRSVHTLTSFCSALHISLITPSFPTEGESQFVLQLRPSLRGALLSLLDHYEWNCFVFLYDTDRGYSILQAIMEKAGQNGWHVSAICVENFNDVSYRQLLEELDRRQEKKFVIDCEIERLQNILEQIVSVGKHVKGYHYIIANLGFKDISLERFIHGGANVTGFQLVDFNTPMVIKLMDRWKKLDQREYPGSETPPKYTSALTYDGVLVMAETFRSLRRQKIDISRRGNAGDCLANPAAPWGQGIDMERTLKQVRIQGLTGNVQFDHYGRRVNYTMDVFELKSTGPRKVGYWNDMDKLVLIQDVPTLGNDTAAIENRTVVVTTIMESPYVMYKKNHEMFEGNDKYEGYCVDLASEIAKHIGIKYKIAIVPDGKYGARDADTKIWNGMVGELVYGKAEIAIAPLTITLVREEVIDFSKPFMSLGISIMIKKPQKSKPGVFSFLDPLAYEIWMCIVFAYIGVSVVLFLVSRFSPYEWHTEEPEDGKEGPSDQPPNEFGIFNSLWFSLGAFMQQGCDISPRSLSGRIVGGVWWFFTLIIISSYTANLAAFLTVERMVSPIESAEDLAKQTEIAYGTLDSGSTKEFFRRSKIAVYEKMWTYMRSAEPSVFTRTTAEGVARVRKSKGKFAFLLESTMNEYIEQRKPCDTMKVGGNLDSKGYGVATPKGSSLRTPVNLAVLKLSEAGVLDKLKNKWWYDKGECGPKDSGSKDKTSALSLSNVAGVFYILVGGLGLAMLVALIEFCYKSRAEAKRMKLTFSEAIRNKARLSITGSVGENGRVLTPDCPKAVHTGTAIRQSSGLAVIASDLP
Procedure: To evaluate functional antagonism of anti-miR-17 oligonucleotides towards the AMPA-R, certain oligonucleotides were tested using the manual whole-cell patch clamp technique, which records membrane currents as a measure of AMPA-R activity.
Manual whole-cell patch clamp studies were performed by Metrion Biosciences (Cambridge, UK). Whole-cell voltage clamp experiments were performed at room temperature (18-21° C.) using an EPC10 patch clamp amplifier using Patchmaster software (HEKA Elektronik). Glass patch pipettes were fabricated from borosilicate glass capillaries (Harvard Apparatus) to resistances between 1.4 and 2.5 MΩ. Membrane currents were recorded using the whole-cell patch clamp technique. ChanTest® GluA1/GluA4 EZCells were clamped at a holding potential of −80 mV and membrane currents elicited by 10 μM(S)-AMPA delivered using a VC38 perfusion system (ALA Scientific Instruments). The […] current amplitude values were measured with each application of 10 μM(S)-AMPA. The fractional change of current amplitude produced by each concentration of compound was calculated relative to the control current (pre-compound) and expressed as percentage change (% inhibition) for each cell. RGLS4326 was tested in a separate study from all other compounds in Table 6.

[3] = tested on: KspCre/Pkd1F/RC (Pkd1-F/RC) mice; experiment: Efficacy in Pkd1-F/RC mouse model of ADPKD; assay type: in vivo; details: 20 mg/kg SC on days 8, 10, 12, 15 of age
Procedure: Mice were sacrificed at 18 days of age, and kidney weight, body weight, cyst index, serum creatinine level, and blood urea nitrogen (BUN) level were measured. BUN level is a marker of kidney function. A higher BUN level correlates with poorer kidney function, thus a reduction in BUN level is an indicator of reduced kidney injury and damage and improved function. Statistical significance was calculated by one-way ANOVA with Dunnett's multiple correction.

miR-17 [4] = experiment: miR-17 PD-Sig in mouse kidney cell lines; assay type: cell-based; details: D52B5, mouse, PKD
Procedure: The activity of certain compounds was evaluated using a mouse miR-17 Pharmacodynamic-Signature (miR-17 PD-Sig), which consists of the expression of 18 unique miR-17 target genes normalized by six reference housekeeping genes, to provide an unbiased and comprehensive assessment of miR-17 activity. The mouse miR-17 PD-Sig score was the calculated average of the 18 genes' individual log 2 fold changes (normalized by six housekeeping genes) compared to mock transfection (Lee et al., Nat. Commun., 2019, 10, 4148).
The PD-Sig for RGLS4326 in mIMCD3 cells (77.2, indicated by “*”) was not generated in this experiment; the value in Table 14 is that reported by Lee et al., Nat. Commun., 2019, 10, 4148. Blank cells in the table indicate that a compound was not tested in a particular cell line.

With `Cc1ccccc1C(=O)Nc1ccc(C(=O)N2CCCC(O)c3cc(Cl)ccc32)c(C)c1` (stereo not shown) [Tolvaptan, tolvaptan, reference compound] the “Mean Cystic Area” value (Pcy/DBA mice) was 44.68%, the “Mean Cystic Area % Inhibition” value (Pcy/DBA mice) was 29.2% and the Mean KW/BW (Pcy/DBA mice) was 59.3 mg/g. For the same molecule, the “Mean KW/BW % Inhibition” value (Pcy/DBA mice) was 44.9%, the “Mean Urine Ngal/Cr” value (Pcy/DBA mice) was 8.73 mg/mg and the “Mean Urine Ngal/Cr % Inhibition” value (Pcy/DBA mice) was 62.1%.
“ASCSAMAFUFGFCMASCS [RG5124, reference compound]” was tested, and the “Log2FC (37.5 nM)” value (miR-17 [1]) was 0.40, the IC50 (AMPA-R; Experiment #1) was over 100 µM and the “% Inhibition @ 0.1 uM” value (AMPA-R; Experiment #1, 0.1 uM) was 0.4%. The “% Inhibition @ 1 uM” value (AMPA-R; Experiment #1, 1 uM) was 12.9%, the “% Inhibition @ 10 uM” value (AMPA-R; Experiment #1, 10 uM) was −3.7% and the “% Inhibition @ 100 uM” value (AMPA-R; Experiment #1, 100 uM) was −5.1%. For the same molecule, the IC50 (AMPA-R; Experiment #2) was over 100 µM, the “% Inhibition @ 0.1 uM” value (AMPA-R; Experiment #2, 0.1 uM) was −1.2% and the “% Inhibition @ 1 uM” value (AMPA-R; Experiment #2, 1 uM) was 1.6%. For the same molecule, the “% Inhibition @ 10 uM” value (AMPA-R; Experiment #2, 10 uM) was −4.2%, the “% Inhibition @ 100 uM” value (AMPA-R; Experiment #2, 100 uM) was 7.2% and the IC50 (AMPA-R; Experiment #3) was over 100 µM. For the same molecule, the “% Inhibition @ 0.1 uM” value (AMPA-R; Experiment #3, 0.1 uM) was 5.1%, the “% Inhibition @ 1 uM” value (AMPA-R; Experiment #3, 1 uM) was 9.3% and the “% Inhibition @ 10 uM” value (AMPA-R; Experiment #3, 10 uM) was 16.1%. For the same molecule, the “% Inhibition @ 100 uM” value (AMPA-R; Experiment #3, 100 uM) was 23%, the IC50 (AMPA-R; Table 8) was at least 100 µM and the “% Inhibition @ Concentration 100 uM” value (AMPA-R; Table 8 (3′-terminal nucleobase/sugar variants), 100 uM) was 10.1%. The “% Inhibition @ Concentration 0.1 uM” value (AMPA-R; Table 8, 0.1 uM) was −8.6%, the “% Inhibition @ Concentration 1 uM” value (AMPA-R; Table 8, 1 uM) was −0.6% and the “% Inhibition @ Concentration 10 uM” value (AMPA-R; Table 8, 10 uM) was 4.4%. For the same molecule, the “miPSA Displacement Score, Mean” value (miR-17 [2]) was 0.5935, the “% Inhibition on membrane currents evoked with 10 uM (s)-AMPA (Mean ± SD)” value (AMPA-R (GluA1/GluA4); 0.3 uM compound) was 14.1 ± 7.2% and the “% Inhibition on membrane currents evoked with 10 uM (s)-AMPA (Mean ± SD)” value (AMPA-R (GluA1/GluA4); 3 uM compound) was 42.1 ± 9.4%. The “BW/KW Ratio, Mean Difference vs. PBS” value [3] was 26.14, the “Serum BUN, Mean Difference vs. PBS” value [3] was “+8.138” and the “Serum Creatine, Mean Difference vs. PBS” value [3] was “+0.07838”. The “Mean BW/KW Ratio” value ([3]; sacrificed at 18 days) was 91.75, the “Mean Serum BUN” value ([3]; sacrificed at 18 days) was 50.61 and the “Mean Serum Creatine” value ([3]; sacrificed at 18 days) was 0.2403. For the same molecule, the EC50 (miR-17 [4]) was 0.507 µM.
